Columns and labels:
STK39/STLK3 = molecular target: T1, STK39/STLK3 (Homo sapiens, UniProt Q9UEW8); test: Kinase selectivity profile assay; format: biochemical; conditions: 500 nM; relative to DMSO; read-out: Residual enzymatic activity
T1 construct: purchased Reaction Biology Corporation
Procedure: (§1) The activity of MT-SYK-03 against cSrc kinase and selectivity profile towards other 341 kinases was determined at Reaction Biology Corporation (Malvern, PA, USA) using the standard kinase assay protocol. […]; unbound phosphate was removed by extensive washing of filters in phosphoric acid. Kinase activity data was expressed as the percent remaining kinase activity in test samples compared to vehicle (dimethyl sulfoxide) reactions based on the radioactivity of reaction products (see Table S2). Experiment was replicated twice.

P38g = molecular target: T2, P38g (Homo sapiens, UniProt P53778); test: Kinase selectivity profile assay; format: biochemical; conditions: 500 nM; relative to DMSO; read-out: Residual enzymatic activity
T2 construct: purchased Reaction Biology Corporation
Procedure: as §1

ERBB4/HER4 = molecular target: T3, ERBB4/HER4 (Homo sapiens, UniProt Q15303); test: Kinase selectivity profile assay; format: biochemical; conditions: 500 nM; relative to DMSO; read-out: Residual enzymatic activity
T3 construct: purchased Reaction Biology Corporation
Procedure: as §1

CDK5/p25 = molecular target: T4, CDK5/p25 (Homo sapiens, UniProt Q00535); test: Kinase selectivity profile assay; format: biochemical; conditions: 500 nM; relative to DMSO; read-out: Residual enzymatic activity
T4 construct: purchased Reaction Biology Corporation
Procedure: as §1

CDK2/cyclin E = molecular target: T5, CDK2/cyclin E (Homo sapiens, UniProt P24941); test: Kinase selectivity profile assay; format: biochemical; conditions: 500 nM; relative to DMSO; read-out: Residual enzymatic activity
T5 construct: purchased Reaction Biology Corporation
Procedure: as §1

CHK1 = molecular target: T6, CHK1 (Homo sapiens, UniProt O14757); test: Kinase selectivity profile assay; format: biochemical; conditions: 500 nM; relative to DMSO; read-out: Residual enzymatic activity
T6 construct: purchased Reaction Biology Corporation
Procedure: as §1

BRK = molecular target: T7, BRK (Homo sapiens, UniProt Q13882); test: Kinase selectivity profile assay; format: biochemical; conditions: 500 nM, relative to DMSO
T7 construct: purchased Reaction Biology Corporation
Procedure: as §1

CDK6/cyclin D1 = molecular target: T8, CDK6/cyclin D1 (Homo sapiens, UniProt Q00534); test: Kinase selectivity profile assay; format: biochemical; conditions: 500 nM; relative to DMSO; read-out: Residual enzymatic activity
T8 construct: purchased Reaction Biology Corporation
Procedure: as §1

NEK5 = molecular target: T9, NEK5 (Homo sapiens, UniProt Q6P3R8); test: Kinase selectivity profile assay; format: biochemical; conditions: 500 nM; relative to DMSO; read-out: Residual enzymatic activity
T9 construct: purchased Reaction Biology Corporation
Procedure: as §1

CLK3 = molecular target: T10, CLK3 (Homo sapiens, UniProt P49761); test: Kinase selectivity profile assay; format: biochemical; conditions: 500 nM; relative to DMSO; read-out: Residual enzymatic activity
T10 construct: purchased Reaction Biology Corporation
Procedure: as §1

FLT4/VEGFR3 = molecular target: T11, FLT4/VEGFR3 (Homo sapiens, UniProt P35916); test: Kinase selectivity profile assay; format: biochemical
T11 construct: purchased Reaction Biology Corporation (assay service)
Procedure: as §1

CHK2 = molecular target: T12, CHK2 (Homo sapiens, UniProt O96017); test: Kinase selectivity profile assay; format: biochemical; conditions: 500 nM; relative to DMSO; read-out: Residual enzymatic activity
T12 construct: purchased Reaction Biology Corporation
Procedure: as §1

RSK1 = molecular target: T13, RSK1 (Homo sapiens, UniProt Q15418); test: Kinase selectivity profile assay; format: biochemical; conditions: 500 nM; relative to DMSO; read-out: Residual enzymatic activity
T13 construct: purchased Reaction Biology Corporation
Procedure: as §1

HIPK1 = molecular target: T14, HIPK1 (Homo sapiens, UniProt Q86Z02); test: Kinase selectivity profile assay; format: biochemical; conditions: 500 nM; relative to DMSO; read-out: Residual enzymatic activity
T14 construct: purchased Reaction Biology Corporation
Procedure: as §1

ERK5/MAPK7 = molecular target: T15, ERK5/MAPK7 (Homo sapiens, UniProt Q13164); test: Kinase selectivity profile assay; format: biochemical; conditions: 500 nM; relative to DMSO; read-out: Residual enzymatic activity
T15 construct: purchased Reaction Biology Corporation
Procedure: as §1

PAK4 = molecular target: T16, PAK4 (Homo sapiens, UniProt O96013); test: Kinase selectivity profile assay; format: biochemical; conditions: 500 nM; relative to DMSO; read-out: Residual enzymatic activity
T16 construct: purchased Reaction Biology Corporation
Procedure: as §1

IKKe/IKBKE = molecular target: T17, IKKe/IKBKE (Homo sapiens, UniProt Q14164); test: Kinase selectivity profile assay; format: biochemical; conditions: 500 nM; relative to DMSO; read-out: Residual enzymatic activity
T17 construct: purchased Reaction Biology Corporation
Procedure: as §1

MLCK2/MYLK2 = molecular target: T18, MLCK2/MYLK2 (Homo sapiens, UniProt Q9H1R3); test: Kinase selectivity profile assay; format: biochemical; conditions: 500 nM; relative to DMSO; read-out: Residual enzymatic activity
T18 construct: purchased Reaction Biology Corporation
Procedure: as §1

TNK1 = molecular target: T19, TNK1 (Homo sapiens, UniProt Q13470); test: Kinase selectivity profile assay; format: biochemical; conditions: 500 nM; relative to DMSO; read-out: Residual enzymatic activity
T19 construct: purchased Reaction Biology Corporation
Procedure: as §1

LIMK2 = molecular target: T20, LIMK2 (Homo sapiens, UniProt P53671); test: Kinase selectivity profile assay; format: biochemical; conditions: 500 nM; relative to DMSO; read-out: Residual enzymatic activity
T20 construct: purchased Reaction Biology Corporation
Procedure: as §1

SGK1 = molecular target: T21, SGK1 (Homo sapiens, UniProt O00141); test: Kinase selectivity profile assay; format: biochemical; conditions: 500 nM; relative to DMSO; read-out: Residual enzymatic activity
T21 construct: purchased Reaction Biology Corporation
Procedure: as §1

LATS2 = molecular target: T22, LATS2 (Homo sapiens, UniProt Q9NRM7); test: Kinase selectivity profile assay; format: biochemical; conditions: 500 nM; relative to DMSO; read-out: Residual enzymatic activity
T22 construct: purchased Reaction Biology Corporation
Procedure: as §1

DYRK1B = molecular target: T23, DYRK1B (Homo sapiens, UniProt Q9Y463); test: Kinase selectivity profile assay; format: biochemical; conditions: 500 nM; relative to DMSO; read-out: Residual enzymatic activity
T23 construct: purchased Reaction Biology Corporation
Procedure: as §1

IRAK1 = molecular target: T24, IRAK1 (Homo sapiens, UniProt P51617); test: Kinase selectivity profile assay; format: biochemical; conditions: 500 nM; relative to DMSO; read-out: Residual enzymatic activity
T24 construct: purchased Reaction Biology Corporation
Procedure: as §1

CDK2/cyclin A = molecular target: T25, CDK2/cyclin A (Homo sapiens, UniProt P24941); test: Kinase selectivity profile assay; format: biochemical; conditions: 500 nM; relative to DMSO; read-out: Residual enzymatic activity
T25 construct: purchased Reaction Biology Corporation
Procedure: as §1

MST3/STK24 = molecular target: T26, MST3/STK24 (Homo sapiens, UniProt Q9Y6E0); test: Kinase selectivity profile assay; format: biochemical; conditions: 500 nM; relative to DMSO; read-out: Residual enzymatic activity
T26 construct: purchased Reaction Biology Corporation
Procedure: as §1

DCAMKL2 = molecular target: T27, DCAMKL2 (Homo sapiens, UniProt Q8N568); test: Kinase selectivity profile assay; format: biochemical; conditions: 500 nM; relative to DMSO; read-out: Residual enzymatic activity
T27 construct: purchased Reaction Biology Corporation
Procedure: as §1

NEK3 = molecular target: T28, NEK3 (Homo sapiens, UniProt P51956); test: Kinase selectivity profile assay; format: biochemical; conditions: 500 nM; relative to DMSO; read-out: Residual enzymatic activity
T28 construct: purchased Reaction Biology Corporation
Procedure: as §1

CAMK4 = molecular target: T29, CAMK4 (Homo sapiens, UniProt Q16566); test: Kinase selectivity profile assay; format: biochemical; conditions: 500 nM; relative to DMSO; read-out: Residual enzymatic activity
T29 construct: purchased Reaction Biology Corporation
Procedure: as §1

CK1d = molecular target: T30, CK1d (Homo sapiens, UniProt P48730); test: Kinase selectivity profile assay; format: biochemical; conditions: 500 nM; relative to DMSO; read-out: Residual enzymatic activity
T30 construct: purchased Reaction Biology Corporation
Procedure: as §1

DMPK2 = molecular target: T31, DMPK2 (Homo sapiens, UniProt Q6DT37); test: Kinase selectivity profile assay; format: biochemical; conditions: 500 nM; relative to DMSO; read-out: Residual enzymatic activity
T31 construct: purchased Reaction Biology Corporation
Procedure: as §1

BRSK1 = molecular target: T32, BRSK1 (Homo sapiens, UniProt Q8TDC3); test: Kinase selectivity profile assay; format: biochemical; conditions: 500 nM; relative to DMSO; read-out: Residual enzymatic activity
T32 construct: purchased Reaction Biology Corporation
Procedure: as §1

ALK5/TGFBR1 = molecular target: T33, ALK5/TGFBR1 (Homo sapiens, UniProt P36897); test: Kinase selectivity profile assay; format: biochemical; conditions: 500 nM; relative to DMSO; read-out: Residual enzymatic activity
T33 construct: purchased Reaction Biology Corporation
Procedure: as §1

OSR1/OXSR1 = molecular target: T34, OSR1/OXSR1 (Homo sapiens, UniProt O95747); test: Kinase selectivity profile assay; format: biochemical; conditions: 500 nM; relative to DMSO; read-out: Residual enzymatic activity
T34 construct: purchased Reaction Biology Corporation
Procedure: as §1

MSK2/RPS6KA4 = molecular target: T35, MSK2/RPS6KA4 (Homo sapiens, UniProt O75676); test: Kinase selectivity profile assay; format: biochemical; conditions: 500 nM; relative to DMSO; read-out: Residual enzymatic activity
T35 construct: purchased Reaction Biology Corporation
Procedure: as §1

PHKg2 = molecular target: T36, PHKg2 (Homo sapiens, UniProt P15735); test: Kinase selectivity profile assay; format: biochemical; conditions: 500 nM; relative to DMSO; read-out: Residual enzymatic activity
T36 construct: purchased Reaction Biology Corporation
Procedure: as §1

RSK2 = molecular target: T37, RSK2 (Homo sapiens, UniProt P51812); test: Kinase selectivity profile assay; format: biochemical; conditions: 500 nM; relative to DMSO; read-out: Residual enzymatic activity
T37 construct: purchased Reaction Biology Corporation
Procedure: as §1

TYRO3/SKY = molecular target: T38, TYRO3/SKY (Homo sapiens, UniProt Q06418); test: Kinase selectivity profile assay; format: biochemical; conditions: 500 nM; relative to DMSO; read-out: Residual enzymatic activity
T38 construct: purchased Reaction Biology Corporation
Procedure: as §1

HIPK4 = molecular target: T39, HIPK4 (Homo sapiens, UniProt Q8NE63); test: Kinase selectivity profile assay; format: biochemical; conditions: 500 nM; relative to DMSO; read-out: Residual enzymatic activity
T39 construct: purchased Reaction Biology Corporation
Procedure: as §1

341 kinases = test: Kinase selectivity profile, whole panel; format: biochemical, human; conditions: 500 nM
Procedure: as §1

T7 sequence (Q13882 whole entry): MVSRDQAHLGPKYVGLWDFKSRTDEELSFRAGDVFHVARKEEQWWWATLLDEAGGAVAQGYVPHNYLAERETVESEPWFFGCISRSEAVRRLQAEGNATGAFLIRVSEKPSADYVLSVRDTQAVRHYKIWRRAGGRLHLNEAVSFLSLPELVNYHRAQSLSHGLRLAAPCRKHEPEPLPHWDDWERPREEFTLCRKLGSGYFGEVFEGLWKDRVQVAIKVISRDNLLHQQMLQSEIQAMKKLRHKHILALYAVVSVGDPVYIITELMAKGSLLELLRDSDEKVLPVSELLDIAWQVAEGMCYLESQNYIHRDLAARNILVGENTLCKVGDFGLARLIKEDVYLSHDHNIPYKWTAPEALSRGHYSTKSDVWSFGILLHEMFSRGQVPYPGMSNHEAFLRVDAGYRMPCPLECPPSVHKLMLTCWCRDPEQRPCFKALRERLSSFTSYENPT
T11 sequence (P35916 25-1363): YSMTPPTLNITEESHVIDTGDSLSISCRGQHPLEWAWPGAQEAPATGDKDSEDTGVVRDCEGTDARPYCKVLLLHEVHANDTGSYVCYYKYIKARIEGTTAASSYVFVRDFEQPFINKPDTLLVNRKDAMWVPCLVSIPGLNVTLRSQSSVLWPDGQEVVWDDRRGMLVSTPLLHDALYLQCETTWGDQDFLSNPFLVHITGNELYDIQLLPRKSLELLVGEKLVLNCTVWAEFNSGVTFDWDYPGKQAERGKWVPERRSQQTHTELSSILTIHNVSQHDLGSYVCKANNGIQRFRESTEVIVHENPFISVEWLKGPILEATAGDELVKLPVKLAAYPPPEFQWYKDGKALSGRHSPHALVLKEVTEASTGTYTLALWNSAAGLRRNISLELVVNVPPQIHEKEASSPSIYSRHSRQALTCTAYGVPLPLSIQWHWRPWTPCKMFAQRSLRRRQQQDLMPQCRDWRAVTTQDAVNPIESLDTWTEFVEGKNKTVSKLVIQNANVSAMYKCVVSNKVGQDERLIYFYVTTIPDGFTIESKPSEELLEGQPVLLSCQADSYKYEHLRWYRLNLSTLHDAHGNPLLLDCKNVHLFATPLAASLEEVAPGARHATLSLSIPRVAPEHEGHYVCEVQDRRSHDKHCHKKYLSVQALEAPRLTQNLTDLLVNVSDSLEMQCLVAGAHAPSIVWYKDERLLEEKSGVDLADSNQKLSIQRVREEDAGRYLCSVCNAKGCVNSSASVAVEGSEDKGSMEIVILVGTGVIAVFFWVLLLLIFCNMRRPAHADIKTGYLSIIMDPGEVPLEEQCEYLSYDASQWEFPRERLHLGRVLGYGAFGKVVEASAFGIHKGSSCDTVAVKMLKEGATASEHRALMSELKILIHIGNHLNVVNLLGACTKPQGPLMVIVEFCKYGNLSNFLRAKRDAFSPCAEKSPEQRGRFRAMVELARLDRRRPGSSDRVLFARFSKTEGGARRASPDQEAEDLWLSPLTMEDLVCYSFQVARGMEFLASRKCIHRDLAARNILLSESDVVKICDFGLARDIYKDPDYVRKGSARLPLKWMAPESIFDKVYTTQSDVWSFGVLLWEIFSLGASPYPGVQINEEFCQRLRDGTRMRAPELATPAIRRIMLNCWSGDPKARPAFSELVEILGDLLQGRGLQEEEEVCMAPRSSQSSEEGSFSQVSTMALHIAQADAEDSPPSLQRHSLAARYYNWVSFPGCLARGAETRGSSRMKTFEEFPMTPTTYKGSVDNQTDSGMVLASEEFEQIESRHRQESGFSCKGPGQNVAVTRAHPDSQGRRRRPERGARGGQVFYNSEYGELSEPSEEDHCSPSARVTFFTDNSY
T4 sequence (Q00535 whole entry): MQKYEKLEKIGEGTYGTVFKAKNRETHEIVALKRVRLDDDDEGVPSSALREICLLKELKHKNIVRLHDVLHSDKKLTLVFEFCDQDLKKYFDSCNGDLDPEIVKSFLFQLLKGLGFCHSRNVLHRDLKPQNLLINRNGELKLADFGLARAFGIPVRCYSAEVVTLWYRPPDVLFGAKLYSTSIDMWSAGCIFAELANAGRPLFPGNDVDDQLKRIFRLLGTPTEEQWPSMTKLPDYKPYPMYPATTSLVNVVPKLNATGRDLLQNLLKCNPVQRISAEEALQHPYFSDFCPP
T4 sequence (Q15078 99-307 partner limits assumed): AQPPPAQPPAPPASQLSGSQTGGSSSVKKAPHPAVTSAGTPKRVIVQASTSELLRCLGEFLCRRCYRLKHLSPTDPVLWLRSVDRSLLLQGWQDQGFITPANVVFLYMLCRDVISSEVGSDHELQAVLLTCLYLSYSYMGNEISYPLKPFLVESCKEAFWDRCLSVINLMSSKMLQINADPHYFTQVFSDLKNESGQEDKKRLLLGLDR
T17 sequence (Q14164 whole entry): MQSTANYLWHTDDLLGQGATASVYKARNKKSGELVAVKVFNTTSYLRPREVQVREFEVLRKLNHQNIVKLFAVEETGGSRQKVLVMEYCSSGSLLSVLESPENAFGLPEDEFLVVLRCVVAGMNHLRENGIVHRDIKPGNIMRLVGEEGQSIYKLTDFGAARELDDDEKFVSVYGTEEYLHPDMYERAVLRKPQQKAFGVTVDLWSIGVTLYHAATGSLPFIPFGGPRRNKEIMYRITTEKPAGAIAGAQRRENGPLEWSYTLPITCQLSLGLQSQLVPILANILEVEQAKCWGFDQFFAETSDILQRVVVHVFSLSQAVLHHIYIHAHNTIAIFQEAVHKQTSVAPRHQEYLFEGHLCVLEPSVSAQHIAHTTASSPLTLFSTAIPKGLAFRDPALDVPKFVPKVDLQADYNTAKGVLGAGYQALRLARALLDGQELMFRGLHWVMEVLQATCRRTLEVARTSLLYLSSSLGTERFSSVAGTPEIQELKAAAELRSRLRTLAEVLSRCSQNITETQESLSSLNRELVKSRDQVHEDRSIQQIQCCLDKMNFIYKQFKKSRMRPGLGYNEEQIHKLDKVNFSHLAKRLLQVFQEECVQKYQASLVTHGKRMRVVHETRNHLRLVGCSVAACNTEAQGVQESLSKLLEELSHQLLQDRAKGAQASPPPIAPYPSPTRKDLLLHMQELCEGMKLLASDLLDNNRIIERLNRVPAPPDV
T19 sequence (Q13470 whole entry): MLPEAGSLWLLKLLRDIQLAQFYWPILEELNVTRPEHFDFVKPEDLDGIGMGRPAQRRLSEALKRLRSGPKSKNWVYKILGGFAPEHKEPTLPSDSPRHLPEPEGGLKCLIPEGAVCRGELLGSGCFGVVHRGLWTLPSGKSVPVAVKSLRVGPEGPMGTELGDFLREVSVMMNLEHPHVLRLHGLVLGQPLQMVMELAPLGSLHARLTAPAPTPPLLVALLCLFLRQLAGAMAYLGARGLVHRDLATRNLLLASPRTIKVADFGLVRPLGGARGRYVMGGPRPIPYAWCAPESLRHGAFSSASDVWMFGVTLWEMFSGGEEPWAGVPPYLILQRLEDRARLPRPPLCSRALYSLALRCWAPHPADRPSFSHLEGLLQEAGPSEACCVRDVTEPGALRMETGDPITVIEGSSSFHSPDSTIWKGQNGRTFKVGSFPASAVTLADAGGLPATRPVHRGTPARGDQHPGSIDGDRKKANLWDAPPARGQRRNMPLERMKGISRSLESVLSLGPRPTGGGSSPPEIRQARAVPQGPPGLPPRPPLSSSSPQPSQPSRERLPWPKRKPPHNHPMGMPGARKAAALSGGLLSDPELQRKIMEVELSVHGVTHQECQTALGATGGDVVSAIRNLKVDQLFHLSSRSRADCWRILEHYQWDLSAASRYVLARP
T6 sequence (O14757 whole entry): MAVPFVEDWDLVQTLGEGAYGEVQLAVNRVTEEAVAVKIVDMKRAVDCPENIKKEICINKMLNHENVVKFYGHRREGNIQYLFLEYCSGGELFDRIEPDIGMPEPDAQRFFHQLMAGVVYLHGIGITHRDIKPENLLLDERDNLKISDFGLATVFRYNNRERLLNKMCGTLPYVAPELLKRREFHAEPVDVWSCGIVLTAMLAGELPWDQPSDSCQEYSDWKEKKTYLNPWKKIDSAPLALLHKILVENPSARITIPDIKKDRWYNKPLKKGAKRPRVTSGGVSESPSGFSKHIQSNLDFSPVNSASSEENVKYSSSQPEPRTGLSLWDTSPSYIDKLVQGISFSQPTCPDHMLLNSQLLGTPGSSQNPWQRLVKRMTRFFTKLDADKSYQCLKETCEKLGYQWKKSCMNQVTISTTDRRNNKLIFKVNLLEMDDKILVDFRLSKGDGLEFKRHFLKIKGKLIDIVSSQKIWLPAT
T23 sequence (Q9Y463 whole entry): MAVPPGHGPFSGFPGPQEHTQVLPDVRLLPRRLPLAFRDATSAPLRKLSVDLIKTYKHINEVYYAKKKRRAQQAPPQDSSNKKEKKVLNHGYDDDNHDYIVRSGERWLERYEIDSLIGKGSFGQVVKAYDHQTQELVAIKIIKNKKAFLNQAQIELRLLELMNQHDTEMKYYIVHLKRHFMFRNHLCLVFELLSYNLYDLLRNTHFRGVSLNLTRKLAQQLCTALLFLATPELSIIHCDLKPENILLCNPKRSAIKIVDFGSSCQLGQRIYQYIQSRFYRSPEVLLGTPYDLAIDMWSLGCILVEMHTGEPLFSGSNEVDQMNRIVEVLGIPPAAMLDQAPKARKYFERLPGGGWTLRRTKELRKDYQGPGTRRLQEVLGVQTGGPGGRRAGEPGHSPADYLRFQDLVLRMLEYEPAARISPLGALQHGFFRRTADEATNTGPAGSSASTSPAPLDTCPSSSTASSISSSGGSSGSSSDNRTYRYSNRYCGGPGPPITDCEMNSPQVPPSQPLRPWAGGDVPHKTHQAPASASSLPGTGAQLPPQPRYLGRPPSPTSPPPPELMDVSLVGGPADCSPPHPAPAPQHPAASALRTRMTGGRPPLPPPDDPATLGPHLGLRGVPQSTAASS

COc1cc(Nc2ncnc(Nc3cc4c(cn3)NC(=O)C(C)(C)O4)n2)cc(OC)c1OC [MT-SYK-03]
remaining activity at 0.5 µM (STK39/STLK3): 107%
remaining activity at 0.5 µM (P38g): 101%
remaining activity at 0.5 µM (ERBB4/HER4): 79.4%
remaining activity at 0.5 µM (CDK5/p25): 102%
remaining activity at 0.5 µM (CDK2/cyclin E): 82.1%
remaining activity at 0.5 µM (CHK1): 91.4%
Residual enzymatic activity (BRK): 54.2%
remaining activity at 0.5 µM (BRK; read-out: Residual enzymatic activity): > 54%
remaining activity at 0.5 µM (CDK6/cyclin D1): 91.8%
remaining activity at 0.5 µM (NEK5): 63.6%
remaining activity at 0.5 µM (CLK3): 103%
remaining activity at 0.5 µM (FLT4/VEGFR3; 500 nM, relative to DMSO, read-out: Residual enzymatic activity): 40.4%
IC50 (FLT4/VEGFR3; 10-dose mode, threefold serial dilution from 10 μM): 0.0554 µM
remaining activity at 0.5 µM (CHK2): 95%
remaining activity at 0.5 µM (RSK1): 105%
remaining activity at 0.5 µM (HIPK1): 97.4%
remaining activity at 0.5 µM (ERK5/MAPK7): 92.2%
remaining activity at 0.5 µM (PAK4): 92.1%
remaining activity at 0.5 µM (IKKe/IKBKE): 77.5%
remaining activity at 0.5 µM (MLCK2/MYLK2): 105%
remaining activity at 0.5 µM (TNK1): 44.7%
remaining activity at 0.5 µM (LIMK2): 84.9%
remaining activity at 0.5 µM (SGK1): 108%
remaining activity at 0.5 µM (LATS2): 85.3%
remaining activity at 0.5 µM (DYRK1B): 90.6%
remaining activity at 0.5 µM (IRAK1): 74.6%
remaining activity at 0.5 µM (CDK2/cyclin A): 83.1%
remaining activity at 0.5 µM (MST3/STK24): 108%
remaining activity at 0.5 µM (DCAMKL2): 99.1%
remaining activity at 0.5 µM (NEK3): 72%
remaining activity at 0.5 µM (CAMK4): 111%
remaining activity at 0.5 µM (CK1d): 86.5%
remaining activity at 0.5 µM (DMPK2): 96.4%
remaining activity at 0.5 µM (BRSK1): 92.6%
remaining activity at 0.5 µM (ALK5/TGFBR1): 104%
remaining activity at 0.5 µM (OSR1/OXSR1): 98.2%
remaining activity at 0.5 µM (MSK2/RPS6KA4): 97.9%
remaining activity at 0.5 µM (PHKg2): 102%
remaining activity at 0.5 µM (RSK2): 104%
remaining activity at 0.5 µM (TYRO3/SKY): 104%
remaining activity at 0.5 µM (HIPK4): 112%
Number of kinases inhibited by more than 50% (341 kinases): 34 kinases
Number of kinases inhibited by more than 80% (341 kinases): 13 kinases
Number of kinases inhibited by more than 90% (341 kinases): five

Source: article PMC8632988, “Inhibition of SYK and cSrc kinases can protect bone and cartilage in preclinical models of osteoarthritis and rheumatoid arthritis” (Scientific Reports, 2021)
